Consider two compounds from patent US5663201A, “Desferrioxamine-B salts” (CIBA-GEIGY Corporation, priority 1992, dated 1997).

The structures appear in SMILES notation. Where a name gives a salt, the structure may show the parent alone. Read-outs that look alike come from different tables or passages of the source.

Data set [1] is classed as physicochemical. The following applies: n-octanol/water, 5000 µM. How it is done: (§1) The partition coefficients of the salts prepared in Examples 1 to 5 between n-octanol and water are determined by the `shake-flask` method of Leo et at, Chem. Rev., 71(6), 525 (1971).
The n-octanol and aqueous phases are mutually saturated prior to conducting the experiment. The desferrioxamine-B sulphonic acid addition salt is dissolved in the aqueous phase at a concentration of 0.005 mol/l and the partition experiment is performed by shaking the vessel containing the two phases until an equilibrium has been achieved. […] After equilibrium has been achieved, the sample is centrifuged to enable phase separation. Both organic and aqueous phases are analysed for desferrioxamine-B content via extraction of an appropriate aliquot, quenching with an aqueous (for assay of the aqueous phase) or methanolic (for assay of the n-octanol phase) solution of FeCl3, and measurement of the absorption of the characteristic ferrioxamine-B chelate at ca. 450 nm. Respective calibration plots (absorbance vs. concentration of desferrioxamine-B sulphonic acid salt) for the assay of both aqueous and organic phases show a linear response over the concentration range studied. The results obtained are as follows: […]

The format of data set [2] is physicochemical. The following applies: n-octanol/phosphate buffer, pH 7.4. How it is done:
as §1
The n-octanol and aqueous phases are mutually saturated prior to conducting the experiment. The desferrioxamine-B sulphonic acid addition salt is dissolved in the aqueous phase at a concentration of 0.005 mol/l and the partition experiment is performed by shaking the vessel containing the two phases until an equilibrium has been achieved. […] After equilibrium has been achieved, the sample is centrifuged to enable phase separation. Both organic and aqueous phases are analysed for desferrioxamine-B content via extraction of an appropriate aliquot, quenching with an aqueous (for assay of the aqueous phase) or methanolic (for assay of the n-octanol phase) solution of FeCl3, and measurement of the absorption of the characteristic ferrioxamine-B chelate at ca. 450 nm. Respective calibration plots (absorbance vs. concentration of desferrioxamine-B sulphonic acid salt) for the assay of both aqueous and organic phases show a linear response over the concentration range studied. The results obtained are as follows:
The partition coefficients of the salts prepared in Examples 1 to 5 between n-octanol and an aqueous phosphate buffer at pH7.4 having an ionic strength of 0.31 mol/l are determined using the procedure of Examples 6-10. The results obtained are as follows:
The use of n-octanol/aqueous media partition coefficients as a model for the lipophilicity of drugs is well established (see the abovementioned Leo et al reference). The aqueous phase in Examples 11 to 15 simulates physiological conditions.

Data set [3] is described as follows: intrinsic dissolution of tablets, Langenbucher flow-through apparatus. Type of data set: physicochemical. The conditions noted are these: water, 25° C. How it is done:
Tablets are prepared from the salts of Examples 1 and 4 by compressing a mixture of 99 parts of the salt and 1 part of magnesium stearate in a 13mm die for 2 minutes under a pressure of 4×10^5 kPa. The intrinsic dissolution rates of the tablets are determined using a Langenbucher flow-through apparatus, with water at 25° C. as the dissolution medium. The amount of desferrioxamine-B dissolved in the medium is measured at intervals using a spectrophotometric assay at 215 nm.

For data set [4], the system named is Daudi cell line (B-cell lymphoma). In words: iron-chelation bioassay: growth inhibiting effect on cells through iron removal, [3H] Thymidine uptake. The following applies: 72 hours, Control (0 μM): Ex 18 22297, Ex 19 23897, listed as octanesulphonate. Format: cell-based. How it is done:
The iron-chelating properties of salts of the invention in a biological system are determined by means of a bioassay in which the growth inhibiting effect of the salts on cells through iron removal is measured by the uptake of radioactively labelled thymidine into the cells. The bioassay is carried out using a Daudi cell line (B-cell lymphoma), a Roswell Park Memorial Institute (RPMI) 1640 medium containing 1 µM ferric citrate and supplements as low iron washing medium and RPM11640 together with 5% by weight of foetal calf serum as passaging medium.
The cells are fed 24 hours before use. They are washed twice in the low iron washing medium to remove any excess iron and diluted with this medium to a concentration of 0.2×10^6 cells/0.180 ml. To 0.180 ml aliquots are added 0.02 ml of solutions of the desferrioxamine-B salts under test in phosphate-buffered saline (PBS) to give concentrations ranging from a Control containing no salt to a […] solution. The cells are then incubated at 37° C. in an atmosphere containing 5% by volume of carbon dioxide for 72 hours, being pulsed for the last 8 hours of that time with labelled [^3 H] Thymidine at 5 micro Ci/ml. The resulting cells are harvested and their radioactive disintegrations are counted for 10 minutes. The results are shown in the table below as the average of 4 separate experiments (except the Control result in Example 18 which is the average of 3 separate experiments).

For data set [5] the following is noted: in words, U.S. Pat. No. 3,247,197; cited from earlier work.

As to `CC(=O)N(O)CCCCCNC(=O)CCC(=O)N(O)CCCCCNC(=O)CCC(=O)N(O)CCCCCN` [Example 4, octane-1-sulphonate salt of desferrioxamine-B], the entries for the “Partition Coefficient” value in data set [1] and in data set [2] were 0.121 and 0.047, respectively. Further, the “% Desferrioxaine-B salt dissolved” value is recorded as 1.71% in data set [3] (1 min, listed as octanesulphonate); 3.07% in data set [3] (2 min, listed as octanesulphonate); 6.88% in data set [3] (5 min, listed as octanesulphonate); 10.56% in data set [3] (10 min, listed as octanesulphonate); 14.22% in data set [3] (15 min, listed as octanesulphonate); 17.94% in data set [3] (20 min, listed as octanesulphonate). Besides, the “% Desferrioxaine-B salt dissolved” value in data set [3] (30 min, listed as octanesulphonate) was found to be 24.73%; in data set [3] (50 min, listed as octanesulphonate) it was 37.09%; in data set [3] (75 min, listed as octanesulphonate) it was 48.75%; in data set [3] (100 min, listed as octanesulphonate) it was 58.34%; in data set [3] (125 min, listed as octanesulphonate), 66.38%; in data set [3] (150 min) it was 72.38%. For the same compound, the “% Desferrioxaine-B salt dissolved” value was found to be 79.13% in data set [3] (175 min, listed as octanesulphonate); 84.91% in data set [3] (200 min, listed as octanesulphonate); 89.25% in data set [3] (225 min, listed as octanesulphonate); 92.50% in data set [3] (250 min, listed as octanesulphonate); 94.91% in data set [3] (275 min, listed as octanesulphonate); 96.34% in data set [3] (300 min, listed as octanesulphonate). Moreover, in data set [3] (in words), the “intrinsic rate of release into the aqueous dissolution medium” value was “slow”. Besides, the “Disintegrations Per Minute ([3H] Thymidine uptake)” value in data set [4] (0.5 μM salt) is on record as 21830 Disintegrations Per Minute; in data set [4] (1 μM salt) it was 14765 Disintegrations Per Minute; in data set [4] (2 μM salt), 7651 Disintegrations Per Minute; in data set [4] (3 μM salt), 7109 Disintegrations Per Minute; in data set [4] (4 μM salt), 6280 Disintegrations Per Minute; in data set [4] (5 μM salt), 5373 Disintegrations Per Minute. For the same compound, the “Disintegrations Per Minute ([3H] Thymidine uptake)” value in data set [4] (6 μM salt) is on record as 4122 Disintegrations Per Minute; in data set [4] (7.5 μM salt), 3716 Disintegrations Per Minute; in data set [4] (10 μM salt), 2292 Disintegrations Per Minute; in data set [4] (15 μM salt), 1065 Disintegrations Per Minute; in data set [4] (20 μM salt), 482 Disintegrations Per Minute.
For `CC(=O)N(O)CCCCCNC(=O)CCC(=O)N(O)CCCCCNC(=O)CCC(=O)N(O)CCCCCN` [desferrioxamine-B], the “ability to form stable complexes with trivalent metal ions” value in data set [5] is given as “marked ability to form stable complexes with trivalent metal ions, especially Fe^3+”.
